{"source": "patent US9863955B2", "about": "“AMPK activator screening method, and AMPK activator” (KYORIN PHARMACEUTICAL CO., LTD., priority 2012, dated 2018)", "key": {"[1]": {"target": "T1, interaction between PHB1 and AMPK (Homo sapiens, UniProt P35232)", "T1 construct": "purchased Abnova Corp. (GST-PHB1); Calbiochem (AMPK)", "T1 sequence (P35232 1-272)": "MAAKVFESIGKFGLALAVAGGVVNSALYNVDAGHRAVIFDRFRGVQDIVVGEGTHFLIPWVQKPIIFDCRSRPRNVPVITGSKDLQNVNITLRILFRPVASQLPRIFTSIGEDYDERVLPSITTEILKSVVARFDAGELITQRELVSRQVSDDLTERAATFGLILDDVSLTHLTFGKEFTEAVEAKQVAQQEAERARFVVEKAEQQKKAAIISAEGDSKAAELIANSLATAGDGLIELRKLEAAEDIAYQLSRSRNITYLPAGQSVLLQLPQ", "test": "GST pull down assay of GST-PHB1 protein and AMPK in the presence of compound A", "assay_type": "binding", "settings": "compound A final concentration 10 μM, 3 hours at 4° C., Western blotting (FIG. 7)", "protocol": "Specifically, Glutathione Sepharose 4 Fast Flow carrier (GE Healthcare) was bound to each of commercially available GST protein, a GST fusion PHB1 protein (hereinafter also referred to as GST-PHB1 protein) (Abnova Corp.) and a GST fusion PHB2 protein (hereinafter also referred to as the GST-PHB2 protein) (Abnova Corp.) to obtain GST carrier-protein complexes. Each of the GST carrier-protein complexes and AMPK (Calbiochem) were incubated in a NET buffer (0.5% NP-40, 50 mM Tris-HCl pH 7.5, 50 mM sodium chloride, and 5 mM EDTA) for 3 hours at 4° C. for binding. After washing the resultant with a NET buffer, a sample buffer (50 mM Tris-HCl pH 6.8, 2% SDS, 10% glycerin, 1% β-mercaptoethanol, 12.5 mM EDTA, and 0.02% bromophenol blue) was added thereto to prepare a sample. The thus obtained sample was separated by SDS-PAGE, the resultant was transferred to a PVDF membrane and subjected to Western blotting using anti-AMPKα and anti-GST antibodies, so as to detect whether or not AMPK was bound to GST protein, GST-PHB1 protein or GST-PHB2 protein bound to Gluthathione Sepharose to be pulled down.\nGST-PHB1 protein (500 ng) was bound to Glutathione Sepharose 4 Fast Flow (10 μL) to obtain a GST carrier-protein complex. […]"}, "PHB2": {"system": "PHB2", "test": "Western blotting of HepG2 cells cultured with compound A: PHB2", "assay_type": "cell-based, human", "settings": "various final concentrations, 3 hours culture (FIG. 8)", "protocol": "(§1) Compound A was added to a HepG2 cell culture system to various final concentrations, and after culturing the resultant for 3 hours, the cells were lysed in a lysis buffer to obtain a cell extract. The thus obtained cell extract was used for performing SDS-PAGE so as to separate proteins contained in the extract in accordance with their sizes, and the resultant was transferred to a PVDF membrane to detect PHB1, PHB2, AMPKα and phosphorylated AMPKα by Western blotting."}, "PHB1": {"system": "PHB1", "test": "Western blotting of HepG2 cells cultured with compound A: PHB1", "assay_type": "cell-based, human", "settings": "various final concentrations, 3 hours culture (FIG. 8)", "protocol": "as §1"}, "ACC": {"system": "ACC", "test": "Western blotting of HepG2 cells cultured with compound A: ACC", "assay_type": "cell-based, human", "settings": "various final concentrations, 3 hours culture (FIG. 8)"}, "AMPKα": {"system": "AMPKα", "test": "Western blotting of HepG2 cells cultured with compound A: AMPKα", "assay_type": "cell-based, human", "settings": "various final concentrations, 3 hours culture (FIG. 8)", "protocol": "as §1"}, "human PHB1": {"system": "human PHB1", "test": "Real-time PCR of HepG2 cells transfected with siRNA: PHB1", "assay_type": "cell-based", "settings": "72 hours after transfection (FIG. 1)", "excerpt": "(§2) Human hepatoma cell line HepG2 cells were transfected with siRNA (Stealth RNAi, Invitrogen) against human PHB1 or human PHB2 using Lipofectamine RNAiMAX (Invitrogen).\n(§3) Seventy-two hours after the transfection, RNA was extracted from siRNA transfected cells using RNeasy Mini Kit (Qiagen). The thus obtained RNA was reverse transcribed into a cDNA using High Capacity cDNA Reverse Transcription Kit (Applied Biosystems). The resultant cDNA was subjected to real-time PCR by TaqMan Gene Expression Assays (Applied Biosystems, PHB1: Hs_00855044_gl, PHB2: Hs_00200720_ml) using 7500 Fast Real-Time PCR system (Applied Biosystems), and thus, the influence of the knockdown of PHB1 or PHB2 on the amount of gene expression was detected."}, "human PHB2": {"system": "human PHB2", "test": "Real-time PCR of HepG2 cells transfected with siRNA: PHB2", "assay_type": "cell-based", "settings": "72 hours after transfection (FIG. 1)", "excerpt": "as §2, §3"}}}
{"molecule": "CCCCN1C(=O)CN(Cc2ccc(OC)c(C(=O)NCc3ccc(Oc4ccc(F)cc4)cc3)c2)C1=O", "note": "[compound A, 5(2,4-dioxo-3-butylimidazolidin-1-yl)methyl-2-methoxy-N-[4-(4-fluorophenoxy)phenylmethyl]benzamide]", "values": [{"measurement": "AMPKα pulled down by GST-PHB1 protein", "setting": "[1]", "result": "remarkably decreased"}, {"measurement": "amount of PHB2", "setting": "PHB2", "result": "does not remarkably affect"}, {"measurement": "amount of PHB1", "setting": "PHB1", "result": "does not remarkably affect"}, {"measurement": "amount of ACC", "setting": "ACC", "result": "does not remarkably affect"}, {"measurement": "level of phosphorylated ACC", "setting": "ACC", "result": "increased by compound A in a concentration-dependent manner"}, {"measurement": "amount of AMPKα", "setting": "AMPKα", "result": "does not remarkably affect"}, {"measurement": "level of phosphorylated AMPKα", "setting": "AMPKα", "result": "increased by compound A in a concentration-dependent manner"}]}
{"molecule": "siPHB1: siRNA (Stealth RNAi, Invitrogen) against human PHB1, SEQ ID NO: 1 and 2 (chain 1 UUGGCAAUCAGCUCAGCUGCCUUGG; chain 2 CCAAGGCAGCUGAGCUGAUUGCCAA; Stealth RNAi (Invitrogen), modifications not given here)", "values": [{"measurement": "amount of transcription of PHB1", "setting": "human PHB1", "result": "specifically depressed"}]}
{"molecule": "siPHB2: siRNA (Stealth RNAi, Invitrogen) against human PHB2, SEQ ID NO: 3 and 4 (chain 1 UACGAUUCUGUGAUGUGGCGAUCGU; chain 2 ACGAUCGCCACAUCACAGAAUCGUA; Stealth RNAi (Invitrogen), modifications not given here)", "values": [{"measurement": "amount of transcription of PHB2", "setting": "human PHB2", "result": "specifically depressed"}]}
